Measured values taken from patent US8623869B2, “Compounds useful as inhibitors of ATR kinase” (Vertex Pharmaceuticals Incorporated, priority 2010, dated 2014).

molecular target: T1, full-length ATR (Homo sapiens, UniProt Q13535); test: ATR Inhibition Assay (radioactive-phosphate incorporation); format: biochemical; conditions: Ki(app); 5 nM full-length ATR, 10 μM ATP, 800 μM target peptide, 25° C.
T1 construct: Assays were carried out at 25° C. in the presence of 5 nM full-length ATR
Description: Compounds were screened for their ability to inhibit ATR kinase using a radioactive-phosphate incorporation assay. Assays were carried out in a mixture of 50 mM Tris/HCl (pH 7.5), 10 mM MgCl2 and 1 mM DTT. Final substrate concentrations were 10 μM [γ-33P]ATP (3mCi 33P ATP/mmol ATP, Perkin Elmer) and 800 μM target peptide (ASELPASQPQPFSAKKK).
Assays were carried out at 25° C. in the presence of 5 nM full-length ATR. An assay stock buffer solution was prepared containing all of the reagents listed above, with the exception of ATP and the test compound of interest. 13.5 μL of the stock solution was placed in a 96 well plate followed by addition of 2 μL of DMSO stock containing serial dilutions of the test compound (typically starting from a final concentration of 15 μM with 3-fold serial dilutions) in duplicate (final DMSO concentration 7%). The plate was pre-incubated for 10 minutes at 25° C. and the reaction initiated by addition of 15 μL [γ-33P]ATP (final concentration 10 μM).
The reaction was stopped after […] by the addition of 30 μL 0.1M phosphoric acid containing 2 mM ATP. A multiscreen phosphocellulose filter 96-well plate (Millipore, Cat no. MAPHN0B50) was pretreated with 100 μL 0.2M phosphoric acid prior to the addition of 45 μL of the stopped assay mixture. The plate was washed with 5×200 μL 0.2M phosphoric acid. After drying, 100 μL Optiphase ‘SuperMix’ liquid scintillation cocktail (Perkin Elmer) was added to the well prior to scintillation counting (1450 Microbeta Liquid Scintillation Counter, Wallac).
After removing mean background values for all of the data points, Ki(app) data were calculated from non-linear regression analysis of the initial rate data using the Prism software package (GraphPad Prism version 3.0cx for Macintosh, GraphPad Software, San Diego Calif., USA).

T1 sequence (Q13535 whole entry): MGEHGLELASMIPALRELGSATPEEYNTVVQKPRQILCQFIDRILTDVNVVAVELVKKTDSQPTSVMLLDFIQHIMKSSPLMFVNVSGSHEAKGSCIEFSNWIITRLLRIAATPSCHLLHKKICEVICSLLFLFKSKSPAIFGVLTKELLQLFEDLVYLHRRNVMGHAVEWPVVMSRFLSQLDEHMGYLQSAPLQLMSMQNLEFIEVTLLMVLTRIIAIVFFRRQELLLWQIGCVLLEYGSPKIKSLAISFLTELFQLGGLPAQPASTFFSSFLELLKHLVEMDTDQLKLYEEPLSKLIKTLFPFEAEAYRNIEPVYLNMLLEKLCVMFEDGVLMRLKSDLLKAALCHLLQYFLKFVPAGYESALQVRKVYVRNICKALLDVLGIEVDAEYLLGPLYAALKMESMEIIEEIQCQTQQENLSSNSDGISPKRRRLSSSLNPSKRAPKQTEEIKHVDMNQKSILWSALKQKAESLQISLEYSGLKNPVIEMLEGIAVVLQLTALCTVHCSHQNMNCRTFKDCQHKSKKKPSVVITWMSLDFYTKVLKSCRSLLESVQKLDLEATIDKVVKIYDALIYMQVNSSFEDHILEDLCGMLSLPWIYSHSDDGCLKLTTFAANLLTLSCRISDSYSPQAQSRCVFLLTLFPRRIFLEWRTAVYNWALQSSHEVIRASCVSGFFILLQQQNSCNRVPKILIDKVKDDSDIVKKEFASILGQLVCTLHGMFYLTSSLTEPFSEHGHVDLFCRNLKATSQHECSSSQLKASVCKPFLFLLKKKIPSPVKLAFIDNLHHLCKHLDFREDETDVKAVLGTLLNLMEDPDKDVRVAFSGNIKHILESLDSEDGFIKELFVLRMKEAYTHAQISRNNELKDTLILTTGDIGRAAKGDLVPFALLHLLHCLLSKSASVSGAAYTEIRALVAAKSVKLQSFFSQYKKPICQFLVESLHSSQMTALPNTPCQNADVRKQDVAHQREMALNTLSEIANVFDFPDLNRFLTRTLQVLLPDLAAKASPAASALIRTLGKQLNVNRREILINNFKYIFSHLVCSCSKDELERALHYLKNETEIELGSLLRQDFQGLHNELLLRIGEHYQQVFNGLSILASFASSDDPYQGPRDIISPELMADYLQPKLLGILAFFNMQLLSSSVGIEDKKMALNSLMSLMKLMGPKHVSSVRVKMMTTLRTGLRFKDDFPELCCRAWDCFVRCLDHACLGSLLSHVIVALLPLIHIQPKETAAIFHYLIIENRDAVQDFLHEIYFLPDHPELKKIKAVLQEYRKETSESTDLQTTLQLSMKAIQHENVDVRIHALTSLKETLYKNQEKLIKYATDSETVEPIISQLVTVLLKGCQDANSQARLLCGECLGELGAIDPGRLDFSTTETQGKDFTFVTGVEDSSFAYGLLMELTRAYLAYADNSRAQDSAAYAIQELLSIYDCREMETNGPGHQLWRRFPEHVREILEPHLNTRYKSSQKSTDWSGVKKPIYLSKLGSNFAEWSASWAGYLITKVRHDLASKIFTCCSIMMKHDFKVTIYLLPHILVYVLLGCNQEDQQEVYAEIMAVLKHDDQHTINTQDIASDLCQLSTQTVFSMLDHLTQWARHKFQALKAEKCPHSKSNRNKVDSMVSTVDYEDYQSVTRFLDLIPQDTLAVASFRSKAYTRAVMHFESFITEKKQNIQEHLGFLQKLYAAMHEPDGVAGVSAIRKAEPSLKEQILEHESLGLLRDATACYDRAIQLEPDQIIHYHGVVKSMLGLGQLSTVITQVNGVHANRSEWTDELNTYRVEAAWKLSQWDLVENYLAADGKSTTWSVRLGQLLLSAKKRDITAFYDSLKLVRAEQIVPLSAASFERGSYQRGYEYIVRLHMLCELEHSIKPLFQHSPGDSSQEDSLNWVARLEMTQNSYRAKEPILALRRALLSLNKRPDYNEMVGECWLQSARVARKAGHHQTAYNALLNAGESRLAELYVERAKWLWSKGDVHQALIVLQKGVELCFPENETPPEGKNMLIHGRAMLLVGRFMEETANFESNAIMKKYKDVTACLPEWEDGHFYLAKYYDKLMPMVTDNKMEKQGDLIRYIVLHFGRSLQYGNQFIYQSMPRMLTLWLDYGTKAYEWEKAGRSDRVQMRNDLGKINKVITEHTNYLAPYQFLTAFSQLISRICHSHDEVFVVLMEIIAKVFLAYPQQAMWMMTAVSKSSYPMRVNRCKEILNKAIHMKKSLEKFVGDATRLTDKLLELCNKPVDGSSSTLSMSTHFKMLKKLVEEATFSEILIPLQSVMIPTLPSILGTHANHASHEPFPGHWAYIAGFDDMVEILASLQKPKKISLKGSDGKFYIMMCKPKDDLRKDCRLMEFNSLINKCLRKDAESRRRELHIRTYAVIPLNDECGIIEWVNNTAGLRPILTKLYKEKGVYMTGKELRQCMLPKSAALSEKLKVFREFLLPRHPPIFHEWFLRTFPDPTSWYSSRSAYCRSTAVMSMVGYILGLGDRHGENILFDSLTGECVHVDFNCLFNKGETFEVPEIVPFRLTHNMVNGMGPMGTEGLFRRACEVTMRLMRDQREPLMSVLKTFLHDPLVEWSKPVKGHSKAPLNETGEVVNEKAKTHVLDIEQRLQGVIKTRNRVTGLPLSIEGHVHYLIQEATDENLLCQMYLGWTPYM

| Compound | Ki [nM] |
| --- | --- |
| COc1ncc(-c2c[nH]c3ncc(-c4ccc(S(=O)(=O)C(C)C)cc4)nc23)cc1C [Compound I-38, 2-(4-isopropylsulfonylphenyl)-7-(6-methoxy-5-methyl-3-pyridyl)-5H-pyrrolo[2,3-b]pyrazine] | 10 to 50 |
| CC(C)S(=O)(=O)c1ccc(-c2cnc3[nH]cc(-c4ccc5ncccc5c4)c3n2)cc1 [Compound I-40, 6-[2-(4-isopropylsulfonylphenyl)-5H-pyrrolo[2,3-b]pyrazin-7-yl]quinoline] | ≤ 10 |
| CC(C)S(=O)(=O)c1ccc(-c2cnc3[nH]cc(-c4ccccc4CO)c3n2)cc1 [Compound I-16, [2-[2-(4-isopropylsulfonylphenyl)-5H-pyrrolo[2,3-b]pyrazin-7-yl]phenyl]methanol] | > 50 |
| CC(C)S(=O)(=O)c1ccc(-c2cnc3[nH]cc(-c4cnn(C)c4)c3n2)cc1 [Compound I-50, 2-(4-isopropylsulfonylphenyl)-7-(1-methylpyrazol-4-yl)-5H-pyrrolo[2,3-b]pyrazine] | > 50 |
| CC(Oc1cc(-c2c[nH]c3ncc(-c4ccc(S(=O)(=O)C(C)C)cc4)nc23)sc1C(=O)O)c1ccccc1Cl (stereo not drawn) [Compound I-69, 3-[1-(2-chlorophenyl)ethoxy]-5-[2-(4-isopropylsulfonylphenyl)-5H-pyrrolo[2,3-b]pyrazin-7-yl]thiophene-2-carboxylic acid] | ≤ 10 |
| CC(C)S(=O)(=O)c1ccc(-c2cnc3[nH]cc(-c4sccc4C(=O)O)c3n2)cc1 [Compound I-63, 2-[2-(4-isopropylsulfonylphenyl)-5H-pyrrolo[2,3-b]pyrazin-7-yl]thiophene-3-carboxylic acid] | 10 to 50 |

Second part, the compound after the results:

| Ki [nM] | Compound |
| --- | --- |
| > 50 | CC(C)S(=O)(=O)c1ccc(-c2cnc3[nH]cc(-c4ccc(-c5nnn[nH]5)cc4)c3n2)cc1 [Compound I-67, 2-(4-isopropylsulfonylphenyl)-7-[4-(1H-tetrazol-5-yl)phenyl]-5H-pyrrolo[2,3-b]pyrazine] |
| 10 to 50 | COc1cccc(-c2c[nH]c3ncc(-c4ccc(S(=O)(=O)C(C)C)cc4)nc23)c1 [Compound I-30, 2-(4-isopropylsulfonylphenyl)-7-(3-methoxyphenyl)-5H-pyrrolo[2,3-b]pyrazine] |
| 10 to 50 | CC(C)S(=O)(=O)c1ccc(-c2cnc3[nH]cc(-c4ccn(C)n4)c3n2)cc1 [Compound I-49, 2-(4-isopropylsulfonylphenyl)-7-(1-methylpyrazol-3-yl)-5H-pyrrolo[2,3-b]pyrazine] |
| ≤ 10 | CC(C)S(=O)(=O)c1ccc(-c2cnc3[nH]cc(-c4cncc(C(C)(C)O)c4)c3n2)cc1 [Compound I-66, 2-[5-[2-(4-isopropylsulfonylphenyl)-5H-pyrrolo[2,3-b]pyrazin-7-yl]-3-pyridyl]propan-2-ol] |
| 10 to 50 | CC(C)S(=O)(=O)c1ccc(-c2cnc3[nH]cc(-c4ccccc4O)c3n2)cc1 [Compound I-14, 2-[2-(4-isopropylsulfonylphenyl)-5H-pyrrolo[2,3-b]pyrazin-7-yl]phenol] |
| > 50 | CC(C)S(=O)(=O)c1ccc(-c2cnc3[nH]cc(-c4ccccc4C#N)c3n2)cc1 [Compound I-8, 2-[2-(4-isopropylsulfonylphenyl)-5H-pyrrolo[2,3-b]pyrazin-7-yl]benzonitrile] |
| > 50 | COc1ccccc1-c1c[nH]c2ncc(-c3ccc(S(=O)(=O)C(C)C)cc3)nc12 [Compound I-15, 2-(4-isopropylsulfonylphenyl)-7-(2-methoxyphenyl)-5H-pyrrolo[2,3-b]pyrazine] |
| > 50 | CC(C)S(=O)(=O)c1ccc(-c2cnc3[nH]cc(-c4ccccc4)c3n2)cc1 [Compound I-5, 2-(4-isopropylsulfonylphenyl)-7-phenyl-5H-pyrrolo[2,3-b]pyrazine] |
| > 50 | CC(C)S(=O)(=O)c1ccc(-c2cnc3[nH]cc(-c4cccnc4NC(=O)C(C)(C)C)c3n2)cc1 [Compound I-60, N-[3-[2-(4-isopropylsulfonylphenyl)-5H-pyrrolo[2,3-b]pyrazin-7-yl]-2-pyridyl]2,2-dimethyl-propanamide] |
